Where only a bound is given, the exact number is not on record here.

One assay deals with Candida albicans. Kind of assay: Antifungal activity against Candida albicans ATCC 10231 assessed as inhibition of fungal growth incubated for 48 hrs by serial dilution based spectrophotometric analysis. Format: functional, organism-based. The settings on record: ATCC 10231, 48 h.
For another assay, the system named is NCI-H460. Kind of assay: Cytotoxicity against human NCI-H460 cells assessed as inhibition of cell growth incubated for 24 hrs by MTT assay. It is filed as functional, cell-based. The settings on record: NCI-H460, 24 h. In general terms: Tetrazolium dyes change colour on reduction, which living cells bring about.
For the next assay, the system named is Escherichia coli. Kind of assay: Antibacterial activity against Escherichia coli ATCC 11775 assessed as inhibition of bacterial growth incubated for 24 hrs by serial dilution based spectrophotometric analysis. It is filed as functional, organism-based. Conditions: ATCC 11775, 24 h.
In another assay the test system is Staphylococcus aureus. Kind of assay: Antibacterial activity against Staphylococcus aureus ATCC 25923 assessed as inhibition of bacterial growth incubated for 24 hrs by serial dilution based spectrophotometric analysis. Format: functional, organism-based. The settings on record: ATCC 25923, 24 h.
Another assay relates to SW-620. Kind of assay: Cytotoxicity against human SW620 cells assessed as inhibition of cell growth incubated for 24 hrs by MTT assay. The settings on record: SW-620, 24 h. It is filed as functional, cell-based.
Assay [1] in a line: Inhibition of RANKL-induced osteoclastogenesis in mouse RAW264 cells assessed as reduction in multinucleated TRAP positive osteoclasts incubated for 4 days by TRAP staining based light microscopic analysis. It is filed as functional, cell-based. Conditions: raw264.7.

In general, IC50 refers to the point on the concentration scale where inhibition reaches its midpoint. Take `COC[C@H]1O[C@H](O[C@@]2(C)CC[C@@H](C(C)(C)O)O[C@@H]2CC[C@H](C)[C@@]2(C)CC=C3[C@@H]2CC[C@@H]2OC(C)(C)[C@H](O[C@H]4O[C@H](CO)[C@@H](O)[C@H](O)[C@H]4NC(C)=O)CC[C@@]32C)[C@H](NC(C)=O)[C@@H](O)[C@@H]1O`: the half-inhibitory concentration (IC50) in the assay with Candida albicans, with NCI-H460, in the assay on Escherichia coli, in the assay on Staphylococcus aureus and in the assay with SW-620 was greater than 30 µM in each case.
As for `COC[C@H]1O[C@H](O[C@@]2(C)CC[C@@H](C(C)(C)O)O[C@@H]2CC[C@H](C)[C@@]2(C)CCC3=C2CC[C@@H]2OC(C)(C)[C@H](O[C@H]4O[C@H](COC)[C@@H](O)[C@H](O)[C@H]4NC(C)=O)[C@@H](O)C[C@@]32C)[C@H](NC(C)=O)[C@@H](O)[C@@H]1O`, the IC50 in the assay with Candida albicans, in the assay with NCI-H460, in the assay on Escherichia coli, in the assay on Staphylococcus aureus and with SW-620 was greater than 30 µM in each case.
Turning to `COC[C@H]1O[C@H](O[C@@]2(C)CC[C@@H](C(C)(C)O)O[C@@H]2CC[C@H](C)[C@@]2(C)CC=C3[C@@H]2CC[C@@H]2OC(C)(C)[C@H](O[C@H]4O[C@H](COC)[C@@H](O)[C@H](O)[C@H]4NC(C)=O)[C@@H](O)C[C@@]32C)[C@H](NC(C)=O)[C@@H](O)[C@@H]1O`, the IC50 in the assay on Candida albicans, with NCI-H460, with Escherichia coli, in the assay with Staphylococcus aureus and in the assay on SW-620 was greater than 30 µM each time.
As for `COC[C@H]1O[C@H](O[C@@H]2[C@@H](O)C[C@@]3(C)C4=CC[C@](C)([C@@H](C)CC[C@H]5O[C@H](C(C)(C)O)CC[C@]5(C)O)[C@H]4CC[C@@H]3OC2(C)C)[C@H](NC(C)=O)[C@@H](O)[C@@H]1O`, the IC50 in the assay on Candida albicans, in the assay with NCI-H460, in the assay on Escherichia coli, in the assay with Staphylococcus aureus and with SW-620 was greater than 30 µM in each case.
Regarding `CC(C)[C@@]1(O)CC[C@@]2(C)C[C@](O)([C@@H]3CC[C@@H]4[C@]3(C)CC[C@H]3OC(C)(C)[C@H](O)C(=O)[C@H](O)[C@]43C)CC[C@H]21`, the concentration for half-maximal inhibition (IC50) in assay [1] turned out to be 32.8 µM.
Same read-out and setting: the figure for `CC(C)[C@@]1(O)CC[C@@]2(C)C[C@](O)([C@@H]3CC[C@@H]4[C@]3(C)CC[C@H]3OC(C)(C)[C@H](O)C(=O)[C@@H](O)[C@]43C)CC[C@H]21` is 12.8 µM.
For `COC[C@H]1O[C@H](O[C@@H]2CC[C@@]3(C)C4=C(CC[C@@H]3OC2(C)C)[C@@](C)([C@@H](C)CC[C@H]2O[C@H](C(C)(C)O)CC[C@]2(C)O[C@H]2O[C@H](COC)[C@@H](O)[C@H](O)[C@H]2NC(C)=O)CC4)[C@H](NC(C)=O)[C@@H](O)[C@@H]1O`, the IC50 in the assay on Candida albicans, in the assay with NCI-H460, in the assay on Escherichia coli, in the assay with Staphylococcus aureus and with SW-620 was greater than 30 µM each time.
Take `COC[C@H]1O[C@H](O[C@@H]2CC[C@@]3(C)C4=CC[C@](C)([C@@H](C)CC[C@H]5O[C@H](C(C)(C)O)CC[C@]5(C)O)[C@H]4CC[C@@H]3OC2(C)C)[C@H](NC(C)=O)[C@@H](O)[C@@H]1O`: the 50% inhibitory concentration (IC50) in the assay on Candida albicans, in the assay with NCI-H460, in the assay on Escherichia coli, with Staphylococcus aureus and with SW-620 was greater than 30 µM in each case.
In the case of `CC(=O)N[C@H]1[C@@H](O[C@@H]2CC[C@@]3(C)C4=CC[C@](C)([C@@H](C)CC[C@H]5O[C@H](C(C)(C)O)CC[C@]5(C)O)[C@H]4CC[C@@H]3OC2(C)C)O[C@H](CO)[C@@H](O)[C@@H]1O`, the IC50 in the assay on Candida albicans, with NCI-H460, in the assay with Escherichia coli, with Staphylococcus aureus and in the assay on SW-620 was greater than 30 µM each time.
As for `COC[C@H]1O[C@H](O[C@@H]2CC[C@@]3(C)C4=CC[C@](C)([C@@H](C)CC[C@H]5O[C@H](C(C)(C)O)CC[C@]5(C)O[C@H]5O[C@H](COC)[C@@H](O)[C@H](O)[C@H]5NC(C)=O)[C@H]4CC[C@@H]3OC2(C)C)[C@H](NC(C)=O)[C@@H](O)[C@@H]1O`, the IC50 in the assay with Candida albicans, with NCI-H460, in the assay with Escherichia coli, in the assay on Staphylococcus aureus and with SW-620 was greater than 30 µM each time.

(Values after ChEMBL document CHEMBL6127130, “Pullenvalenes E-H: Triterpenyl-Aminoglycosides from an Australian Soil-Derived Fungus, Clonostachys sp” (J Nat Prod, 2024).)
